The text below walks through data of PubChem BioAssay (NCI).

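Exposure lasted 48 hours, with cells grown in 96-well plates and compounds tested at five concentrations. The concentration for full growth arrest is given as TGI.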

Among the test systems are HCT-15 colon; MALME-3M melanoma; MCF7 breast; NCI-H522 lung; NCI/ADR-RES ovarian; OVCAR-3 ovarian; OVCAR-4 ovarian; RXF 393 renal; SK-MEL-28 melanoma; SR leukemia; UO-31 renal.
Assay in all cases: inhibition of tumour cell growth, NCI panel, 48 h

As to `Cc1cc(S(=O)(=O)Nc2nnc3c(C(F)(F)F)cc(Cl)cn23)c(S)cc1Cl`, the TGI in the assay with HCT-15 colon, in the assay with MALME-3M melanoma, in the assay on MCF7 breast, with NCI-H522 lung, in the assay with NCI/ADR-RES ovarian and with OVCAR-3 ovarian was over 100 µM each time. Also, the TGI in the assay with OVCAR-4 ovarian, in the assay on RXF 393 renal, in the assay with SK-MEL-28 melanoma, with SR leukemia and in the assay with UO-31 renal was over 100 µM throughout.

As to `Cc1nnc2cc(C(=O)O)c3ccccc3n2c1=O`, the TGI in the assay with HCT-15 colon, with MALME-3M melanoma, in the assay on MCF7 breast, with NCI-H522 lung, with NCI/ADR-RES ovarian and with OVCAR-3 ovarian was over 10 µM throughout. The TGI in the assay on OVCAR-4 ovarian, with RXF 393 renal, in the assay with SK-MEL-28 melanoma, with SR leukemia and in the assay with UO-31 renal was over 10 µM throughout.

Take `O=C1NC(=S)N/C1=C/c1ccccc1O`: the TGI in the assay on HCT-15 colon, in the assay with MALME-3M melanoma, in the assay with MCF7 breast, in the assay with NCI-H522 lung, in the assay on NCI/ADR-RES ovarian and with OVCAR-3 ovarian was over 100 µM each time. For the same compound, the TGI in the assay on OVCAR-4 ovarian, in the assay on RXF 393 renal, with SK-MEL-28 melanoma, in the assay with SR leukemia and with UO-31 renal was over 100 µM in each case.

For `CC(=O)O[C@H]1C#C/C=C\C#CC[C@@H]2C(=O)N(C(=O)OC(C)(C)C)[C@@H]12`, the TGI was 51.4 µM in the assay with HCT-15 colon; over 100 µM in the assay with MALME-3M melanoma; over 100 µM with MCF7 breast; 47.8 µM in the assay on NCI-H522 lung; 74.7 µM in the assay on NCI/ADR-RES ovarian; 98.3 µM in the assay on OVCAR-3 ovarian. The TGI in the assay on OVCAR-4 ovarian was over 100 µM; in the assay on RXF 393 renal it was 56.4 µM; with SK-MEL-28 melanoma it was over 100 µM; in the assay with SR leukemia it was over 100 µM; in the assay on UO-31 renal, 31.2 µM.
